ChEMBL document CHEMBL5126603, “Discovery of Clinical Candidate CHF-6366: A Novel Super-soft Dual Pharmacology Muscarinic Antagonist and β2 Agonist (MABA) for the Inhaled Treatment of Respiratory Diseases” (J Med Chem, 2022)

Columns and labels:
[1] = Metabolic stability in human lung S9 fraction assessed as half life at 1 uM measured after 0 to 60 mins in presence of NADPH by LC-MS/MS analysis; format: ADME, subcellular; settings: time 0-60 min
[2] = Metabolic stability in human plasma assessed as half life at 5 uM measured upto 120 mins by LC-MS/MS analysis; format: ADME, cell-free
[3] = Metabolic stability in rat plasma assessed as half life at 5 uM measured upto 120 mins by LC-MS/MS analysis; format: ADME, cell-free
[4] = Metabolic stability in Dunkin-Hartley guinea pig plasma assessed as half life at 5 uM measured upto 120 mins by LC-MS/MS analysis; format: ADME, cell-free, Cavia porcellus
Trachea [5] = assay: In vivo bifunctional antagonist activity at muscarinic M3 receptor /agonist activity at beta-2 adrenoceptor in Dunkin-Hartley guinea pig trachea assessed as time duration for inhibition of carbachol induced contraction measured […]; format: functional, Cavia porcellus
Trachea [6] = assay: In vivo bifunctional antagonist activity at muscarinic M3 receptor /agonist activity at beta-2 adrenoceptor in Dunkin-Hartley guinea pig trachea assessed as inhibition of carbachol induced contraction; format: functional, tissue-based; settings: Cavia porcellus
[7] = Cmax in Dunkin-Hartley guinea pig lung at 500 nmol/Kg, IT(Intratracheal) measured after 72 hrs by LC/MS-MS analysis; format: ADME, tissue-based, Cavia porcellus; parameters: time 72 hrs, dose 500 nmol/kg, route it(Intratracheal); settings: inhaled or intranasal
[8] = Tmax in Dunkin-Hartley guinea pig lung at 500 nmol/Kg, IT(Intratracheal) measured after 72 hrs by LC/MS-MS analysis; format: ADME, tissue-based, Cavia porcellus; settings: inhaled or intranasal
[9] = AUClast in Dunkin-Hartley guinea pig lung at 500 nmol/Kg, IT(Intratracheal) measured after 72 hrs by LC/MS-MS analysis; format: ADME, tissue-based, Cavia porcellus; settings: in vivo, inhaled_or_intranasal
[10] = AUCinfinity in Dunkin-Hartley guinea pig lung at 500 nmol/Kg, IT(Intratracheal) measured after 72 hrs by LC/MS-MS analysis; format: ADME, tissue-based, Cavia porcellus; parameters: dose 500 nmol/kg, time 72 hrs, route it(Intratracheal); settings: in vivo, inhaled_or_intranasal
[11] = Half life in Dunkin-Hartley guinea pig lung at 500 nmol/Kg, IT(Intratracheal) measured after 72 hrs by LC/MS-MS analysis; format: ADME, tissue-based, Cavia porcellus; settings: inhaled or intranasal
[12] = Cmax in Dunkin-Hartley guinea pig plasma at 500 nmol/Kg, IT(Intratracheal) measured after 72 hrs by LC/MS-MS analysis; format: ADME, cell-free, Cavia porcellus; parameters: dose 500 nmol/kg, time 72 hrs, route it(Intratracheal); settings: inhaled or intranasal
[13] = Tmax in Dunkin-Hartley guinea pig plasma at 500 nmol/Kg, IT(Intratracheal) measured after 72 hrs by LC/MS-MS analysis; format: ADME, cell-free, Cavia porcellus; settings: inhaled or intranasal
[14] = AUClast in Dunkin-Hartley guinea pig plasma at 500 nmol/Kg, IT(Intratracheal) measured after 72 hrs by LC/MS-MS analysis; format: ADME, cell-free, Cavia porcellus; parameters: time 72 hrs, dose 500 nmol/kg, route it(Intratracheal); settings: inhaled or intranasal
[15] = AUCinfinity in Dunkin-Hartley guinea pig plasma at 500 nmol/Kg, IT(Intratracheal) measured after 72 hrs by LC/MS-MS analysis; format: ADME, cell-free, Cavia porcellus; parameters: dose 500 nmol/kg, time 72 hrs, route it(Intratracheal); settings: inhaled or intranasal
[16] = Half life in Dunkin-Hartley guinea pig plasma at 500 nmol/Kg, IT(Intratracheal) measured after 72 hrs by LC/MS-MS analysis; format: ADME, cell-free, Cavia porcellus; settings: inhaled or intranasal
[17] = Mutagenicity in Salmonella typhimurium assessed as induction of reverse mutation by Ames test; format: toxicity; settings: salmonella enterica subsp. enterica serovar typhimurium
[18] = Mutagenicity in Escherichia coli assessed as induction of reverse mutation by Ames test; format: toxicity
Trachea [19] = assay: (§1) Bifunctional antagonist activity at muscarinic M3 receptor /agonist activity at beta-2 adrenoceptor in Dunkin-Hartley guinea pig trachea assessed as inhibition of acetylcholine-induced bronchoconstriction at 1 nmol/Kg, IT(Intratracheal) measured after 5 mins by Konzett-Roessler methodology relative to control; format: functional; settings: Cavia porcellus
Trachea [20] = assay: as §1, with “15” for “5”; format: functional; settings: Cavia porcellus, 0.25 h
Trachea [21] = assay: as §1, with “30” for “5”; format: functional; settings: Cavia porcellus, 0.5 h
[22] = Metabolic stability in rat lung S9 fraction assessed as half life at 1 uM measured after 0 to 60 mins in presence of NADPH by LC-MS/MS analysis; format: ADME, subcellular; settings: time 0-60 min
[23] = Metabolic stability in Dunkin-Hartley guinea pig lung S9 fraction assessed as half life at 1 uM measured after 0 to 60 mins in presence of NADPH by LC-MS/MS analysis; format: ADME, subcellular, Cavia porcellus; settings: time 0-60 min
[24] = In vivo antagonist activity at muscarinic M3 receptor in Dunkin-Hartley guinea pig trachea assessed as inhibition of acetylcholine-induced bronchoconstriction at 3 nmol/Kg, IT(Intratracheal) measured after 1 hr in presence of ICI-118551 by Konzett-Roessler methodology relative to control; format: functional; settings: Cavia porcellus
[25] = In vivo agonist activity at beta-2 adrenoceptor in Dunkin-Hartley guinea pig trachea assessed as inhibition of histamine-induced bronchoconstriction at 3 nmol/Kg, IT(Intratracheal) measured after 1 hr by Konzett-Roessler methodology relative to control; format: functional; settings: Cavia porcellus
Trachea [26] = assay: as §1, with “3” for “1”, “1 hr” for “5 mins”; format: functional; settings: Cavia porcellus
[27] = In vivo antagonist activity at muscarinic M3 receptor in Dunkin-Hartley guinea pig trachea assessed as inhibition of acetylcholine-induced bronchoconstriction at 3 nmol/Kg, IT(Intratracheal) measured after 24 hr in presence of ICI-118551 by Konzett-Roessler methodology relative to control; format: functional; settings: Cavia porcellus
[28] = In vivo agonist activity at beta-2 adrenoceptor in Dunkin-Hartley guinea pig trachea assessed as inhibition of histamine-induced bronchoconstriction at 3 nmol/Kg, IT(Intratracheal) measured after 24 hr by Konzett-Roessler methodology relative to control; format: functional; settings: Cavia porcellus
Trachea [29] = assay: as §1, with “3” for “1”, “24 hr” for “5 mins”; format: functional; settings: Cavia porcellus
[30] = In vivo antagonist activity at muscarinic M3 receptor in Dunkin-Hartley guinea pig trachea assessed as inhibition of acetylcholine induced bronchoconstriction at 1 nmol/Kg, IT(Intratracheal) measured after 1 hr in presence of ICI-118551 by Konzett-Roessler methodology relative to control; format: functional; settings: Cavia porcellus
[31] = In vivo antagonist activity at muscarinic M3 receptor in Dunkin-Hartley guinea pig trachea assessed as inhibition of acetylcholine induced bronchoconstriction at 1 nmol/Kg, IT(Intratracheal) measured after 24 hr in presence of ICI-118551 by Konzett-Roessler methodology relative to control; format: functional; settings: Cavia porcellus
[32] = In vivo agonist activity at beta-2 adrenoceptor in Dunkin-Hartley guinea pig trachea assessed as inhibition of histamine induced bronchoconstriction at 1 nmol/Kg, IT(Intratracheal) measured after 1 hr by Konzett-Roessler methodology relative to control; format: functional; settings: Cavia porcellus
[33] = In vivo agonist activity at beta-2 adrenoceptor in Dunkin-Hartley guinea pig trachea assessed as inhibition of histamine induced bronchoconstriction at 1 nmol/Kg, IT(Intratracheal) measured after 24 hr by Konzett-Roessler methodology relative to control; format: functional; settings: Cavia porcellus
Trachea [34] = assay: as §1, with “acetylcholine induced” for “acetylcholine-induced”, “1 hr” for “5 mins”; format: functional; settings: Cavia porcellus
Trachea [35] = assay: as §1, with “acetylcholine induced” for “acetylcholine-induced”, “24 hr” for “5 mins”; format: functional; settings: Cavia porcellus

| SMILES | half-life at 1 µM [1] [min] | half-life at 5 µM [2] [min] | half-life at 5 µM [3] [min] | half-life at 5 µM [4] [min] | Time (Trachea [5]) [min] | IC50 (Trachea [6]) [nM] | Cmax [7] [ng/g] | Tmax [8] [min] | AUClast [9] [ng·h/g] | AUC [10] [ng·h/g] | half-life [11] [min] | Cmax [12] [ng/g] | Tmax [13] [min] | AUC(0-t) at 72 h [14] [ng·h/mL] | AUC(0-inf) [15] [ng·h/mL] | half-life [16] [min] | Activity [17] | Activity [18] | inhibition in vivo at 0.001 µmol/kg (Trachea [19]) [%] | inhibition in vivo at 0.001 µmol/kg (Trachea [20]) [%] | further results |
| --- | --- | --- | --- | --- | --- | --- | --- | --- | --- | --- | --- | --- | --- | --- | --- | --- | --- | --- | --- | --- | --- |
| COc1cc(C(=O)OCCCCNC[C@H](O)c2ccc(O)c3[nH]c(=O)ccc23)ccc1COc1cccc([C@@H](NC(=O)O[C@H]2CN3CCC2CC3)c2ccccc2)c1 | 89.3 | 21 | 12 | 83.5 | <135 | 1.26 | – | – | – | – | – | – | – | – | – | – | – | – | – | – | – |
| O=c1ccc2c([C@@H](O)CNCCCCO)ccc(O)c2[nH]1 | – | – | – | – | – | – | 334 | 4.98 | 2429 | 3517 | 858 | 13.8 | 4.98 | 30.7 | 58.9 | 464 | Non-Toxic | Non-Toxic | 51.4 | 23.2 | inhibition in vivo at 0.001 µmol/kg (Trachea [21]): 22% |
| O=C(N[C@@H](c1ccccc1)c1cccc(OCc2ccc(C(=O)OCCCCNC[C@H](O)c3ccc(O)c4[nH]c(=O)ccc34)o2)c1)O[C@H]1CN2CCC1CC2 | 32 | < 5 | 7 | > 120 | >225 | 0.2 | – | – | – | – | – | – | – | – | – | – | – | – | – | – | half-life at 1 µM [22]: 120 min; half-life at 1 µM [23]: > 120 min; inhibition in vivo at 0.003 µmol/kg [24]: 73.7%; inhibition in vivo at 0.003 µmol/kg [25]: 84.5%; inhibition in vivo at 0.003 µmol/kg (Trachea [26]): 78.3%; inhibition in vivo at 0.003 µmol/kg [27]: 43.5%; inhibition in vivo at 0.003 µmol/kg [28]: 48.7%; inhibition in vivo at 0.003 µmol/kg (Trachea [29]): 60.6%; inhibition in vivo at 0.001 µmol/kg [30]: 64.7%; inhibition in vivo at 0.001 µmol/kg [31]: 9.4%; inhibition in vivo at 0.001 µmol/kg [32]: 67.8%; inhibition in vivo at 0.001 µmol/kg [33]: 48.9%; inhibition in vivo at 0.001 µmol/kg (Trachea [34]): 72%; inhibition in vivo at 0.001 µmol/kg (Trachea [35]): 34.2% |
| O=C(N[C@H](c1ccccc1)c1cccc(OCc2ccc(C(=O)OCCCCNC[C@H](O)c3ccc(O)c4[nH]c(=O)ccc34)cc2)c1)O[C@H]1CN2CCC1CC2 | 16.8 | < 5 | < 5 | 46.7 | 180 | 1.26 | – | – | – | – | – | – | – | – | – | – | – | – | – | – | – |
| Cn1nc(C(=O)O)cc1COc1cccc([C@@H](NC(=O)O[C@H]2CN3CCC2CC3)c2ccccc2)c1 | – | – | – | – | – | – | 1450 | 4.98 | 6226 | 6465 | 316 | 41.7 | 4.98 | 179 | 296 | 1240 | Non-Toxic | Non-Toxic | 0.84 | 1.92 | inhibition in vivo at 0.001 µmol/kg (Trachea [21]): 3.36% |
